≈ marks a conversion by molar mass, not a printed value. Where two headings read alike, the source gives them in different places.
Key:
[1] = target: T1, human catalytic PDI A1 a domain (PDIa) (Homo sapiens, UniProt P07237); assay: Isothermal titration calorimetry (ITC) binding to PDIa
T1 construct: made in house; host or cells: Escherichia coli BL21-Gold (DE3)

[2] = target: PDI (Homo sapiens, UniProt P07237); assay: Enzymatic assay for inhibition of PDI using insulin as substrate; assay type: biochemical
Chain of PDI (P07237 18-508): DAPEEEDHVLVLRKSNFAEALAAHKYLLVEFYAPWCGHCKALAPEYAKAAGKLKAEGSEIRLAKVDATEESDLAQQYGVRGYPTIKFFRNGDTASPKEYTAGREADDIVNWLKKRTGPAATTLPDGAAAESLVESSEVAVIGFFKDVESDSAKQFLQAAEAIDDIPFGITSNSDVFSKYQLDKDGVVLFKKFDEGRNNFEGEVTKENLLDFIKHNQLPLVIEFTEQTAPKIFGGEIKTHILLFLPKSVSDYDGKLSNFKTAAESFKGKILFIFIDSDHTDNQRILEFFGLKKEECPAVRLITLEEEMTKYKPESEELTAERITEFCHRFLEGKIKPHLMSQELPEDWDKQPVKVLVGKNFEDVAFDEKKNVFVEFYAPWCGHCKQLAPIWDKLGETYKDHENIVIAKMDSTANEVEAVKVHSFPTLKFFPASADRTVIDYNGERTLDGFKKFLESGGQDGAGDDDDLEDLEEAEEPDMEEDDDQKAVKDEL

[3] = tested on: PC12 mHTTQ103 cells; assay: Rescue of PC12 cells from mHTTQ103-induced cell death; assay type: cell-based, rat; conditions: for EC50: Rattus norvegicus
[4] = target: T2, PDIa C56S mutant (PDI C39S) (Homo sapiens, UniProt P07237, C56S); assay: MALDI-TOF mass spectrometry with PDIa C56S mutant; assay type: binding
T2 construct: made in house; host or cells: E. coli
T2 sequence (P07237 18-134 C56S): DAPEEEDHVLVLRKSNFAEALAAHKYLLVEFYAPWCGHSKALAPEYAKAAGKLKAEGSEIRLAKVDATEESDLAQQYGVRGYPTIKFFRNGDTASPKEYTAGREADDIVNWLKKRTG
Text: We also explored the feasibility of generating a crystal structure of PDI bound to one of these inhibitors for structure-based analog design. LOC14 is a reversible inhibitor of PDI and therefore may not remain bound to the protein in crystallization trays. To trap the LOC14-PDI complex, we generated a PDI C39S mutant that should not release the compound from PDI. To confirm this mechanism of binding, we performed MALDI-TOF mass-spectrometry experiments with PDI C39S in the presence and absence of LOC14 (FIG. 4). […] PDI C39S treated with LOC14 gave 4 peaks: main mass peak at 15,557 Da (change of +152 which corresponds to the bound benzoisothiazolone moiety to PDI C39S), a peak at 15,735 Da (corresponding to the benzoisothiazolone moiety bound to C39S-gluconoylated protein), a peak at 15,404 (the mass of unbound C39S protein), and a peak at 15,584 Da (the mass of unbound C39S-gluconoylated protein). […] The incomplete binding is most likely due to the presence of reducing agent in the buffer. […]
To confirm that binding of LOC14 to PDI is reversible, we pre-treated a C56S mutant, as before, with LOC14, BIT, or iodoacetamide, an irreversible modifier of cysteines. Once the PDI-inhibitor complexes were formed, we treated the samples with 2.7 mM DTT, a reducing agent, and analyzed the complex by MALDI-TOF.

[5] = Solubility (stock solvent)
[6] = tested on: uninduced PC12 cells not expressing mHTTQ103; assay: General cell toxicity in PC12 cell culture assay; assay type: cell-based
Procedure: Neuroprotection was assessed by each compound's ability to rescue cells from mutant-huntingtin-induced cell death (“Ind Q103” cells; blue). General cell toxicity of each compound was assessed in uninduced cells not expressing mutant-huntingtin protein (“Unind Q103” cells; red). NMP, DMSO, LOC14 in NMP and LOC14 in DMSO were used as controls.
Data from cells induced to express mHTT^Q103 (blue) and cells not expressing mHTT^Q103 (red) are plotted as mean percent of DMSO-treated uninduced cells±SD with n=3.
The follow-up testing of primary screen hits was performed in a similar way. Fresh powder stocks of primary hits were re-ordered from vendors, dissolved in DMSO and tested in a two-fold serial dilution across 10 wells in both tebufenozide-induced and uninduced PC12 mHTT^Q103 cells. Dose-response curves were plotted as mean±SD and fit to either four-parameter sigmoidal (for uninduced cells) or bell-shaped (induced) function using Prism (GraphPad Software).

[7] = target: T3, 15N-labeled PDIa (Homo sapiens, UniProt P07237); assay: 1H-15N HSQC NMR of PDIa; assay type: binding
T3 construct: His6 (N, cleaved yes); made in house; host or cells: Escherichia coli BL21-Gold (DE3), M9 minimal medium with 15NH4Cl
T3 sequence (P07237 18-134): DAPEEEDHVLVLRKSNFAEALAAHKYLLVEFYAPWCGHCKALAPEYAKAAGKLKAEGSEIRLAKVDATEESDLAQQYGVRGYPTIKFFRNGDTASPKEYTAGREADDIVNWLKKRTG
Procedure: The ^1H-^15N HSQC spectra were performed on Bruker Avance III 500 Ascend (500 MHz) spectrometers at 300 K. The uniformly ^15N-labeled PDIa was dissolved at 50 μM or 100 μM in 90% H2O/10% D20 (v/v), pH 5.1. The ^1H carrier frequency was positioned at the water resonance. The ^15N carrier frequency was positioned at 115 ppm. The spectral width in the ^1H dimension was 7500 Hz and the width in ω1 (^15N) dimension was 1824.6 Hz. Suppression of water signal was accomplished using the WATERGATE sequence. Heteronuclear decoupling was accomplished using GARP decoupling scheme.

[8] = physchem; conditions: organic solvent or mixture
[9] = tested on: neuronal redox state (roGFP2); assay: roGFP2 redox reporter in primary neurons; assay type: cell-based; conditions: 30 min treatment
Procedure: […]. Rat coronal brain slice explants co-transfected with YFP and Tau-4R (FIG. 16B) or striatal brain slice explants co-transfected with YFP and mHTT (FIG. 16C) were treated with LC-43 or DMSO carrier-only for 3 days. The respective regions of each brain slice were then scored for numbers of healthy (FIG. 16B) pyramidal or (FIG. 16C) medium spiny neurons remaining. Data are normalized to the negative control condition set to 100% and plotted as means±SEM. In FIG. 16D, The confocal images shown are maximal z-stacks of 0.5 μm steps (˜20 images per stack). (Bottom) Reduction of neuronal redox state by LC-43. Left, Primary neurons were co-transfected with mCherry (to positively identify transfected neurons) and the genetically encoded ratiometric redox reporter roGFP2. Four days later, the culture medium was changed into an identical formulation except without conventional antioxidant additives. 24 hours after this medium change, LOC-43 or DMSO carrier-only were added to the neurons and images were taken after 30 minutes or 24 hours of treatment as indicated. Imaging was done using a Leica SP5 inverted confocal microscope through a 63× water-immersion objective. Images of 40 individual neurons for each condition were collected at 405 and 488 nm and analysis of the 405/488 ratio for each image pair was done using CellProfiler (Broad Institute).
As mentioned, we synthesized several fluorine-containing analogs of LOC14 (analogs LC-43 and LC-40). Addition of fluorine was the only modification that was tolerated at the ortho position without a complete loss of activity in cells and in targeting PDI in vitro (Table 9). […] Additionally, we evaluated LC-43 using a genetically encoded redox reporter transfected into neurons. […] In contrast, treatment with the non-selective reducing agent dithiothreitol (DTT) produces an immediate and dramatic reduction in the roGFP2 fluorescence ratio that leads rapidly to cell degeneration and death (FIG. 16D). […]

[10] = rescue from mHTTQ103 induced cell death
[11] = Tables 5-13, NA = not active, read-out: Kd
[12] = Tables 5-13, solvent not given (DMSO in Table 1)
[13] = PC-12, Tables 5-13, PC12 cells, read-out: EC50
[14] = PC-12, rescue from mHTTQ103 induced cell death, read-out: PC12 cells EC50

T1 sequence (P07237 18-134): as above

Structure (SMILES) | inhibition of enzymatic (reductase) activity of PDI [2] | Max Viability (%) ([3]; Tables 5-13, PC12 cells) | PC12 cells Max % Viability [3, 10] [%] | EC50 [3, 13] [nM] | binding to PDI by ITC [1] | ITC KD ([1]; N/A = not active) | toxicity in PC12 cell culture assay [6] | other results
O=c1c2ccccc2sn1-c1ccccc1 [LC-24] | did not inhibit PDI's reductase activity | 31 | 30.83 | – | – | – | – | Kd ([1]; Tables 6, 11, 12, read-out: Kd (nM), first value of two-site binding): 8 nM; Kd ([1]; Tables 6, 11, 12, read-out: Kd (nM), second value of two-site binding): 1140 nM; Kd ([1]; read-out: KD2): 1140 nM; EC50 ([3]; PC-12): 1130 nM; EC50 ([3]; PC-12, read-out: PC12 cells EC50): 1130 nM
NC(=O)CI [iodoacetamide] | – | – | – | – | – | – | – | reversibility of binding to PDIa C56S after 2.7 mM DTT [4]: irreversible
O=c1[nH]sc2ccccc12 [BIT, benzoisothiazolone, reference compound] | – | 66 | – | 362 | – | – | – | reversibility of binding to PDIa C56S after 2.7 mM DTT [4]: bind reversibly to C53; Kd [1, 11]: 143 nM; Solubility [5, 12]: 100 mM (≈ 15.1 mg/mL)
Cc1nc2s[nH]c(=O)c2c(C)c1C [LC-51] | did inhibit the enzymatic activity of PDI | 63 | 63.14 | 2200 | could not be detected by ITC | KD = N/A irreversible or not active | complete loss of toxicity | chemical shift changes in PDIa (1H-15N HSQC) [7]: induced the same chemical shifts in PDI as LOC14
O=c1c2cccnc2sn1CO [LC-73, 2-(hydroxymethyl)isothiazolo[5,4-b]pyridin-3(2H)-one] | – | 63 | 63.16 | 2480 | – | – | – | Kd ([1]; FIG. 1, PDI A1a titrated into compound in DMSO, read-out: Kd): 9.8 nM; Kd ([1]; ITC assay, read-out: KD): 10 nM; Solubility [8]: 100 mM (≈ 18.2 mg/mL); Solubility [5]: 100 mM in DMSO; EC50 [3, 14]: 2480 nM
Cc1nc2sn(CN3CCN(C(=O)C4CC4)CC3)c(=O)c2c(C)c1C [LC-52] | did inhibit the enzymatic activity of PDI | 68 | 68.30 | 3570 | could not be detected by ITC | KD = N/A irreversible or not active | complete loss of toxicity | chemical shift changes in PDIa (1H-15N HSQC) [7]: induced the same chemical shifts in PDI as LOC14
O[C@H](CS)[C@H](O)CS (racemic) [DTT, dithiothreitol, reference compound] | – | – | – | – | – | – | – | neuronal redox state (roGFP2) [9]: immediate and drastic reduction
Cc1cc(C)c2c(=O)n(CN3CCN(C(=O)C4CC4)CC3)sc2n1 [LC-53] | did inhibit the enzymatic activity of PDI | 67 | 67.25 | 4250 | could not be detected by ITC | KD = N/A irreversible or not active | complete loss of toxicity | chemical shift changes in PDIa (1H-15N HSQC) [7]: induced the same chemical shifts in PDI as LOC14; EC50 [3, 14]: 4250 nM
O=c1[nH]sc2c(F)cccc12 [LC-40, 7-fluorobenzo[d]isothiazol-3(2H)-one] | able to inhibit the enzymatic activity of PDI | 72 | 72.31 | 9320 | showed no binding to the protein by ITC | KD = N/A irreversible or not active | decreased cellular toxicity | Solubility [5]: 100 mM in DMSO; Solubility [5, 12]: 100 mM (≈ 16.9 mg/mL)
Cc1ccc(-n2sc3ccccc3c2=O)c(Br)c1 [LC-36] | did not inhibit PDI's reductase activity | 15 | – | – | – | – | – | Kd ([1]; read-out: KD2): 25 nM; Solubility [5, 12]: 100 mM (≈ 32 mg/mL)
Cc1cc(C)c2c(=O)[nH]sc2n1 [LC-50] | – | 65 | 65.19 | 5180 | – | – | complete loss of toxicity | Kd ([1]; N/A = not active, read-out: ITC KD): 3830 nM; Kd [1, 11]: 3830 nM; Solubility [8]: 100 mM (≈ 18 mg/mL); Solubility [5]: 100 mM in DMSO; EC50 [3, 14]: 5180 nM

Source: patent US20220380383A1, “NEUROPROTECTIVE PDI MODULATING SMALL MOLECULES AND METHODS OF USE THEREOF” (THE TRUSTEES OF COLUMBIA UNIVERSITY IN THE CITY OF NEW YORK, priority 2018, published 2022)
